Data from ChEMBL document CHEMBL1156052, “Discovery of 1-[4-(3-chlorophenylamino)-1-methyl-1H-pyrrolo[3,2-c]pyridin-7-yl]-1-morpholin-4-ylmethanone (GSK554418A), a brain penetrant 5-azaindole CB2 agonist for the treatment of chronic pain” (J Med Chem, 2009).
Activity calls are given as the source filed them. The rule behind the calls is not given here.

Key:
[1] = target: D(1A) dopamine receptor (Homo sapiens) (UniProt P21728); experiment: Binding affinity to human dopamine D1 receptor at 1 uM
[2] = target: D(2) dopamine receptor (Homo sapiens) (UniProt P14416); experiment: Binding affinity to human dopamine D2S receptor at 1 uM
[3] = target: Endothelin-1 receptor (Homo sapiens) (UniProt P25101); experiment: Binding affinity to human ETA receptor at 1 uM
Endothelin-1 receptor (Homo sapiens), sequence (P25101 whole entry): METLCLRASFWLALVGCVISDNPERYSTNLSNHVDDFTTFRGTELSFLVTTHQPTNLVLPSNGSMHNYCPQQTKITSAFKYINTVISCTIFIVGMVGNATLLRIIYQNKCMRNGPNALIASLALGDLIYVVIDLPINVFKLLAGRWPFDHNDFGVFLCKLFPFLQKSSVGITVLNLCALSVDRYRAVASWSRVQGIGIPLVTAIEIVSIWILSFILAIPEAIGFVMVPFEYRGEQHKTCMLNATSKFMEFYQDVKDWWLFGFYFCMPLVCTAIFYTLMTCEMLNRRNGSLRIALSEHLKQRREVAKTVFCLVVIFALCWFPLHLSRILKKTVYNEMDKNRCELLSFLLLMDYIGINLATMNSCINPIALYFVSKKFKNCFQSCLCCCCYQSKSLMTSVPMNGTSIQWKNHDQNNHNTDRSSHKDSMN

[4] = Binding affinity to GABA receptor at 1 uM
[5] = target: C-X-C chemokine receptor type 2 (Homo sapiens) (UniProt P25025); experiment: Binding affinity to human CXCR2 receptor at 1 uM
[6] = target: Histamine H1 receptor (Homo sapiens) (UniProt P35367); experiment: Binding affinity to human histamine H1 receptor at 1 uM
[7] = target: Histamine H2 receptor (Homo sapiens) (UniProt P25021); experiment: Binding affinity to human histamine H2 receptor at 1 uM
[8] = target: Melatonin receptor type 1A (Homo sapiens) (UniProt P48039); experiment: Binding affinity to human ML1 receptor at 1 uM
[9] = target: Muscarinic acetylcholine receptor M1 (Homo sapiens) (UniProt P11229); experiment: Binding affinity to human muscarinic M1 receptor at 1 uM
[10] = target: Muscarinic acetylcholine receptor M2 (Homo sapiens) (UniProt P08172); experiment: Binding affinity to human muscarinic M2 receptor at 1 uM
[11] = target: Muscarinic acetylcholine receptor M3 (Homo sapiens) (UniProt P20309); experiment: Binding affinity to human muscarinic M3 receptor at 1 uM
Muscarinic acetylcholine receptor M3 (Homo sapiens), sequence (P20309 whole entry, looked up): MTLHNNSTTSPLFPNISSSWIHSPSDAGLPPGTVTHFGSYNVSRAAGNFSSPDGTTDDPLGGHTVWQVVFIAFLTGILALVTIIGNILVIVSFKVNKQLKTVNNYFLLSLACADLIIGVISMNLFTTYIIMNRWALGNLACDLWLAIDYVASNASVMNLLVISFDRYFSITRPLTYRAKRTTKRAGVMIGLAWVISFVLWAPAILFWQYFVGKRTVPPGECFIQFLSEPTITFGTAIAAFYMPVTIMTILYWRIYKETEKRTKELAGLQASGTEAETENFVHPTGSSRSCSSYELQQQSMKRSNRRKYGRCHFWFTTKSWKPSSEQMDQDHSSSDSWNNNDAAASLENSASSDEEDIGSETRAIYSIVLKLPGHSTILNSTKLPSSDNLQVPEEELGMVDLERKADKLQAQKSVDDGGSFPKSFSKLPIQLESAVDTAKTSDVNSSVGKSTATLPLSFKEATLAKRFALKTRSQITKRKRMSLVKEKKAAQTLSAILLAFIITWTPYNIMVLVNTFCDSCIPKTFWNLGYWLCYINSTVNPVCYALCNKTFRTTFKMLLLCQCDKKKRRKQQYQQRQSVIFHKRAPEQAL

[12] = target: Muscarinic acetylcholine receptor M4 (Homo sapiens) (UniProt P08173); experiment: Binding affinity to human muscarinic M4 receptor at 1 uM
[13] = target: Substance-K receptor (Homo sapiens) (UniProt P21452); experiment: Binding affinity to human NK2 receptor at 1 uM
Substance-K receptor (Homo sapiens), sequence (P21452 whole entry): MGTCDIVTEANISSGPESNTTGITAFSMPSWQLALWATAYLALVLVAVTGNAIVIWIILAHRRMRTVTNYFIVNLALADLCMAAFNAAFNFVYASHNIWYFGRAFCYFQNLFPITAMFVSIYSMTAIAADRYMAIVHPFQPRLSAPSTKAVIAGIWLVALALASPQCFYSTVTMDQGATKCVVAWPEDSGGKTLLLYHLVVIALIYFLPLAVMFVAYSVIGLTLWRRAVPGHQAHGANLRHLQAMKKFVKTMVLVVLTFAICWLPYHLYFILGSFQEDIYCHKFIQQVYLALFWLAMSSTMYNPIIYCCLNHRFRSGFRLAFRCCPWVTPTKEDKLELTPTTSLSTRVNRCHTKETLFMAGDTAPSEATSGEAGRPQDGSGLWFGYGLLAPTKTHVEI

[14] = Oral bioavailability in Sprague-Dawley rat at 2 mg/kg after 0.8 hrs; format: ADME, organism-based; conditions: in vivo
[15] = test system: Rattus norvegicus; experiment: Antihyperalgesic activity in complete Freund's adjuvant rat model of inflammatory pain assessed as reversal of hypersensitivity at 0.1 mg/kg, po administered as single dose measured after 1 hr; format: functional, organism-based; design: dose 0.1 mg/kg
[16] = Drug level in blood of complete Freund's adjuvant rat model of inflammatory pain at 0.1 mg/kg, po administered as single dose measured after 1 hr; format: ADME, organism-based; design: dose 0.1 mg/kg, route oral; conditions: read-out: Drug uptake
[17] = test system: Rattus norvegicus; experiment: Antihyperalgesic activity in complete Freund's adjuvant rat model of inflammatory pain assessed as reversal of hyperalgesia at 1 mg/kg, po administered as single dose; format: functional, organism-based; design: dose 1 mg/kg
[18] = Ratio of drug level in brain to blood in Sprague-Dawley rat at 0.4 mg/kg/hr, iv up to 12 hrs; format: ADME, organism-based; design: route intravenous
[19] = test system: Rattus norvegicus; experiment: Analgesic activity in rat joint model of chronic pain assessed as reversal of hypersensitivity at 10 mg/kg, po BID for 5 days; format: functional, organism-based; design: dose 10 mg/kg
[20] = test system: Rattus norvegicus; experiment: Analgesic activity in po dosed rat joint model of chronic pain assessed as minimum effective dose administered BID for 5 days; format: functional; conditions: 120 h, read-out: MED
[21] = Drug level in blood of rat joint model of chronic pain at 10 mg/kg, po BID for 5 days; format: ADME, organism-based; design: dose 10 mg/kg, route oral; conditions: read-out: Drug uptake
[22] = Drug level in blood of rat joint model of chronic pain at 3 mg/kg, po BID for 5 days; format: ADME, organism-based; design: dose 3 mg/kg, route oral; conditions: read-out: Drug uptake
[23] = Drug level in rat blood at 130 mg/kg, po after 1 hr; format: ADME, organism-based; design: dose 130 mg/kg, route oral; conditions: read-out: Drug uptake
[24] = Drug level in rat blood at 130 mg/kg, po after 3 hrs; format: ADME, organism-based; design: dose 130 mg/kg, route oral; conditions: read-out: Drug uptake
[25] = Drug level in rat blood at 130 mg/kg, po after 5 hrs; format: ADME, organism-based; design: dose 130 mg/kg, route oral; conditions: read-out: Drug uptake
[26] = target: Cannabinoid receptor 1 (Homo sapiens, UniProt P21554); experiment: Agonist activity at human recombinant cannabinoid CB1 receptor expressed in MMY23 Saccharomyces cerevisiae assessed as degradation of FDGlu to fluorescein after 24 hrs by spectrofluorimetry; format: functional
[27] = target: T1, Cannabinoid receptor 2 (Homo sapiens, UniProt P34972); experiment: Agonist activity at human recombinant cannabinoid CB2 receptor expressed in MMY23 Saccharomyces cerevisiae assessed as degradation of FDGlu to fluorescein after 24 hrs by spectrofluorimetry; format: functional
T1 sequence (P34972 whole entry): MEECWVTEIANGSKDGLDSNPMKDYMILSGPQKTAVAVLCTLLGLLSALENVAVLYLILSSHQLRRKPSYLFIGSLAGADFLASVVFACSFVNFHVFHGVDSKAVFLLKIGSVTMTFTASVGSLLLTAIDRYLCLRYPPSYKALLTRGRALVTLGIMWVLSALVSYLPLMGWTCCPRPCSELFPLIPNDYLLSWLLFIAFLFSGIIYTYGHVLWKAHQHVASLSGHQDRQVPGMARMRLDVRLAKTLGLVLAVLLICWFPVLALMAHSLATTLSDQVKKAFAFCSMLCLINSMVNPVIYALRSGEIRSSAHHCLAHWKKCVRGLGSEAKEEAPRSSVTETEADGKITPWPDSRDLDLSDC

[28] = target: T1, Cannabinoid receptor 2; experiment: Agonist activity at human recombinant cannabinoid CB2 receptor expressed in MMY23 Saccharomyces cerevisiae assessed as degradation of FDGlu to fluorescein after 24 hrs by spectrofluorimetry relative to HU210; format: functional
[29] = Intrinsic clearance in human liver microsomes; format: ADME, Microsome
[30] = Intrinsic clearance in rat liver microsomes; format: ADME, Microsome
[31] = target: Cytochrome P450 1A2 (Homo sapiens, UniProt P05177); experiment: Inhibition of CYP1A2; format: ADME
[32] = target: Cytochrome P450 2C9 (Homo sapiens, UniProt P11712); experiment: Inhibition of CYP2C9; format: ADME
[33] = target: Cytochrome P450 3A4 (Homo sapiens, UniProt P08684); experiment: Inhibition of CYP3A4; format: ADME
Cytochrome P450 3A4, sequence (P08684 whole entry): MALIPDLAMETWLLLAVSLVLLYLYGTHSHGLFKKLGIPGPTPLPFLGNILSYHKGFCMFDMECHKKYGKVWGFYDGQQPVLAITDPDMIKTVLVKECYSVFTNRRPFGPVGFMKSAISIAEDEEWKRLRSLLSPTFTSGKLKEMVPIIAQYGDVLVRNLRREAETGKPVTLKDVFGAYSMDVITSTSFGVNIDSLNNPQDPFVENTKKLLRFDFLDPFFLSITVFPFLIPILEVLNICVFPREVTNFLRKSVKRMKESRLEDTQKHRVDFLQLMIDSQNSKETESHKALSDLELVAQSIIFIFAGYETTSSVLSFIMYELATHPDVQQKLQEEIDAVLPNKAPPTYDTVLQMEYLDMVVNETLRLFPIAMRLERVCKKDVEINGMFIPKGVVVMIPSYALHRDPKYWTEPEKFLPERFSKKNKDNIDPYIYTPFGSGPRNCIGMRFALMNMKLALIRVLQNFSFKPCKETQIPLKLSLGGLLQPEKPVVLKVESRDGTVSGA

[34] = Dissociation constant, pKa of the compound; format: physicochemical
[35] = test system: Rattus norvegicus; experiment: Antihyperalgesic activity in po dosed complete Freund's adjuvant rat model of inflammatory pain assessed as reduction of hypersensitivity administered as single dose; format: functional
[36] = target: T1, Cannabinoid receptor 2; experiment: Agonist activity at human recombinant cannabinoid CB2 receptor expressed in CHOK1 cells assessed as forskolin-induced cAMP production by luciferase assay; format: functional, cell-based, CHO-K1
[37] = target: T1, Cannabinoid receptor 2; experiment: Agonist activity at human recombinant cannabinoid CB2 receptor expressed in CHOK1 cells assessed as forskolin-induced cAMP production at 20 uM by luciferase assay relative to HU210; format: functional, cell-based; conditions: CHO-K1
[38] = target: Alpha-2A adrenergic receptor (Homo sapiens) (UniProt P08913); experiment: Binding affinity to adrenergic alpha2 receptor at 1 uM
Alpha-2A adrenergic receptor (Homo sapiens), sequence (P08913 whole entry): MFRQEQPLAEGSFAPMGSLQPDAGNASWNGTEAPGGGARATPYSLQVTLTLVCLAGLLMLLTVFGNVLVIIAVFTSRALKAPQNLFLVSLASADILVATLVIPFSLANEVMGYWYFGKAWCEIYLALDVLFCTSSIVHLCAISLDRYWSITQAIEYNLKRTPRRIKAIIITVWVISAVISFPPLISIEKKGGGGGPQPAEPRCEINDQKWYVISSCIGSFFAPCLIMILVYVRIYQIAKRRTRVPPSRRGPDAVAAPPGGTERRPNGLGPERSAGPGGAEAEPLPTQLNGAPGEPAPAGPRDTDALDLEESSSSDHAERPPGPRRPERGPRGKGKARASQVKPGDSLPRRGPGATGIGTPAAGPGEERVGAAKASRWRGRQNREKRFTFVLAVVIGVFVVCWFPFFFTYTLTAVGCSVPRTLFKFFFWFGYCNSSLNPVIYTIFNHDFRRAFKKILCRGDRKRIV

[39] = target: Kappa-type opioid receptor (Homo sapiens) (UniProt P41145); experiment: Binding affinity to kappa opioid receptor at 1 uM
Kappa-type opioid receptor (Homo sapiens), sequence (P41145 whole entry): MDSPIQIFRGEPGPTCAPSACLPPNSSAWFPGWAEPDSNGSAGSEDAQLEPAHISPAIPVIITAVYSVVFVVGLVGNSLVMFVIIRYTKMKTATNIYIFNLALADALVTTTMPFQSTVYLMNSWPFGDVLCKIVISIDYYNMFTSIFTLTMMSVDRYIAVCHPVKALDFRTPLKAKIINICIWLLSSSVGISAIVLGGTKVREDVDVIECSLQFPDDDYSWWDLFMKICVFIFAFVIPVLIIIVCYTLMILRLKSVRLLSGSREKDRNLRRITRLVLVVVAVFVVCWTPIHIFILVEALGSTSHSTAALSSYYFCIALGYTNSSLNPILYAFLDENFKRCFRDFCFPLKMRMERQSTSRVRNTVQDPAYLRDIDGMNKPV

[40] = target: 5-hydroxytryptamine receptor 1A (Homo sapiens) (UniProt P08908); experiment: Binding affinity to 5HT1A receptor at 1 uM
5-hydroxytryptamine receptor 1A (Homo sapiens), sequence (P08908 whole entry): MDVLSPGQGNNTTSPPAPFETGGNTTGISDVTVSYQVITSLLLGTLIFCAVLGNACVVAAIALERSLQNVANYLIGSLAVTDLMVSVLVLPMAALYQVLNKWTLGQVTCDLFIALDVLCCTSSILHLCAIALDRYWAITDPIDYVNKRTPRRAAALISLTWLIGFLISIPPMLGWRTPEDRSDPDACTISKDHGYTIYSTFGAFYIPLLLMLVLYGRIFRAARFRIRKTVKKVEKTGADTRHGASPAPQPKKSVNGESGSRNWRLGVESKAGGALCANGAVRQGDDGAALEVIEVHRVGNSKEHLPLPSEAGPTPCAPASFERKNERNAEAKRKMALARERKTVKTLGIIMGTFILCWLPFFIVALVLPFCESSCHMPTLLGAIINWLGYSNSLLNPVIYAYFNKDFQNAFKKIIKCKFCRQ

[41] = target: 5-hydroxytryptamine receptor 2A (Homo sapiens) (UniProt P28223); experiment: Binding affinity to 5HT2A receptor at 1 uM
[42] = target: Sodium-dependent noradrenaline transporter (Homo sapiens) (UniProt P23975); experiment: Binding affinity to NET at 1 uM
Sodium-dependent noradrenaline transporter (Homo sapiens), sequence (P23975 whole entry): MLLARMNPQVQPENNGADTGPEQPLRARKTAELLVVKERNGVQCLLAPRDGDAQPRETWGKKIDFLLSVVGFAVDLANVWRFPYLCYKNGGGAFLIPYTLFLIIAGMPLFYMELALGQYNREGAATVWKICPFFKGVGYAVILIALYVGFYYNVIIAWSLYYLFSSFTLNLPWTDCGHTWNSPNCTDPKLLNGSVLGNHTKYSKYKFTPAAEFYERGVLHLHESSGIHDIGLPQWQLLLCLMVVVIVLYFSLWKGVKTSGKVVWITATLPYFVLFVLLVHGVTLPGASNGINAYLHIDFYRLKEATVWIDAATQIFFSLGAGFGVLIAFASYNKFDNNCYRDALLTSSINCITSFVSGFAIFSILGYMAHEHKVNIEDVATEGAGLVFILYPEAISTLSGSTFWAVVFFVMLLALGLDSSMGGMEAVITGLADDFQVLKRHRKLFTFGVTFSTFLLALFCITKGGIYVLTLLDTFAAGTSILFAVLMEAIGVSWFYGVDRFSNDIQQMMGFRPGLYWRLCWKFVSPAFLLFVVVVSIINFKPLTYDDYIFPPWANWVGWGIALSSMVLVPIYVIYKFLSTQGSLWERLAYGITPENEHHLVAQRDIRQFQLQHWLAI

[43] = target: Adenosine receptor A1 (Homo sapiens) (UniProt P30542); experiment: Binding affinity to human adenosine A1 receptor at 1 uM
[44] = target: Adenosine receptor A3 (Homo sapiens) (UniProt P0DMS8); experiment: Binding affinity to human adenosine A3 receptor at 1 uM
Adenosine receptor A3 (Homo sapiens), sequence (P0DMS8 whole entry): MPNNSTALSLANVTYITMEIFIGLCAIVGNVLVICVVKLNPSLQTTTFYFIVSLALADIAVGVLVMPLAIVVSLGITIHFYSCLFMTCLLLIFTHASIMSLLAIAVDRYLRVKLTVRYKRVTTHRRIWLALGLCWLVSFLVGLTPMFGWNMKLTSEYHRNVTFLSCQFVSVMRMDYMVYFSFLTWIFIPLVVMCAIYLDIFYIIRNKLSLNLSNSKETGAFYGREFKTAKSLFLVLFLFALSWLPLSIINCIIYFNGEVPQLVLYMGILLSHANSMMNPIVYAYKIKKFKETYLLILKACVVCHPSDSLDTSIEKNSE

[45] = target: Type-1 angiotensin II receptor (Homo sapiens) (UniProt P30556); experiment: Binding affinity to human AT1 receptor at 1 uM
[46] = Binding affinity to central benzodiazepine receptor at 1 uM
[47] = target: B2 bradykinin receptor (Homo sapiens) (UniProt P30411); experiment: Binding affinity to human bradykinin B2 receptor at 1 uM
[48] = target: Cholecystokinin receptor type A (Homo sapiens) (UniProt P32238); experiment: Binding affinity to human CCKA receptor at 1 uM
Cholecystokinin receptor type A (Homo sapiens), sequence (P32238 whole entry): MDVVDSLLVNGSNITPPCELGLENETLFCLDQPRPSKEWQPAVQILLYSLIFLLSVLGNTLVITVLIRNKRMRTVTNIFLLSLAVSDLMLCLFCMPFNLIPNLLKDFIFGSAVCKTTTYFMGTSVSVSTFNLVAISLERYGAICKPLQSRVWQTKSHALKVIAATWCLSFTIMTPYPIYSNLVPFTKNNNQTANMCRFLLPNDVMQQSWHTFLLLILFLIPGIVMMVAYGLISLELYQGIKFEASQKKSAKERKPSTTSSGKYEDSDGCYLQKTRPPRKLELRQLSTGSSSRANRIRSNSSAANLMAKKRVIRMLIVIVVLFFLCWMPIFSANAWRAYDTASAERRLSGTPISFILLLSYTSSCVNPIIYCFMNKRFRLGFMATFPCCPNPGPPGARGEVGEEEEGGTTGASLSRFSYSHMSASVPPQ

[49] = Ratio of drug level in brain to blood in rat 130 mg/kg, po after 5 hrs; format: ADME, organism-based; design: dose 130 mg/kg, route oral

**Q.** What does the source list for `Cn1ccc2c(Nc3cccc(Cl)c3)ncc(C(=O)N3CCOCC3)c21`?
**A.** Activity [1]: < 10%; Activity [2]: < 10%; Activity [3]: < 10%; Activity [4]: < 10%; Activity [5]: < 10%; Activity [6]: < 10%; Activity [7]: < 10%; Activity [8]: < 10%; Activity [9]: < 10%; Activity [10]: < 10%; Activity [11]: < 10%; Activity [12]: < 10%; Activity [13]: < 10%; bioavailability [14]: 82%; Activity [15]: Active; concentration at 1 h [16]: 0.097 µM; Activity [17]: Active; Kp at 12 h [18]: 1.04; Activity [19]: Active; minimal effective dose [20]: 3 mg/kg; concentration at 120 h [21]: 6.1 µM; concentration at 120 h [22]: 1.8 µM; concentration at 1 h [23]: 8.6 µM; concentration at 3 h [24]: 10 µM; concentration at 5 h [25]: 12.3 µM; EC50 [26]: 6.3 µM; EC50 [27]: 0.005 µM; Efficacy [28]: 91%; CLint scaled [29]: < 0.6 mL/min/kg; CLint scaled [30]: < 0.8 mL/min/kg; IC50 [31]: > 100 µM; IC50 [32]: 42 µM; IC50 [33]: 24 µM; pKa [34]: 6.1; ED50 [35]: 0.02 mg/kg; EC50 [36]: 0.008 µM; Efficacy [37]: 100%; Activity [38]: 25%; Activity [39]: 11%; Activity [40]: 24%; Activity [41]: 11%; Activity [42]: 15%; Activity [43]: < 10%; Activity [44]: < 10%; Activity [45]: < 10%; Activity [46]: < 10%; Activity [47]: < 10%; Activity [48]: < 10%; Kp at 5 h [49]: 1
